PubChem BioAssay AID2060893 (Molecular Pharmacology Branch, DTP, NCI, 2025)

Test system: K86415-001-R-J1-PDC complex spheroids, viability
Test: Anticancer human tumor K86415-001-R-J1-PDC patient-derived lung adenocarcinoma cell line growth inhibition [RAS]
Conditions: for IC50: curve of first compound; for viability, T/C: stronger effect = lower value
Excerpt: RAS pathway inhibitors in Combinations in Complex Spheroids
A high-throughput screen of multi-cell type tumor spheroids was designed to identify active combinations of RAS pathway inhibitors and targeted small molecules. Complex spheroids include a stromal component modeled by human endothelial cells (HUVEC) and fibroblasts modeled by human mesenchymal stem cells (MSCs). The concentration ranges selected for each drug and investigational agent were based upon clinically achievable concentrations if the clinical Cmax of the agent was known.
Compounds. The drugs and investigational agents: abemaciclib (NSC768073), cobimetinib (NSC768068), divarasib (GDC6063, NSC841802), docetaxel (NSC628503), GDC-1971 (RLY-1971, NSC841576), gemcitabine (NSC613327), inavolisib (NSC800729), ipatasertib (NSC767898), KB-0742 (NSC834161), MRTX-1133 (NSC836407), osimertinib (NSC779217), RMC-4630 (NSC839698), RMC-6236 (NSC851965), RMC-6291 (NSC852671), Ro-3306 (NSC812927), sapanisertib (NSC764658), SN-38 (NSC673596), staurosporine (NSC755774), SY5609 (NSC837396), and tovorafenib (DAY101, NSC766906), were obtained from the National Cancer Institute (NCI) Developmental Therapeutics Program Chemical Repository. The FDA-approved anticancer drug set is available from the NCI Developmental Therapeutics Program. […] The stock solutions were prepared in dimethyl sulfoxide (DMSO, Sigma-Aldrich, St. Louis, MO, cat. D2650) at 800-fold the tested concentration and stored at -70 degrees C prior to their use. All drugs and investigational agents were tested over a range starting from a high concentration at or near the clinical Cmax and decreasing in half-log increments. If the clinical Cmax for an agent had not been determined, the highest concentration tested was 10 microM.
Cell Culture. All cells were maintained in an incubator at 37 degrees C and 5% CO2 with 95% humidity. The PDC lines were cultured according to standard operating procedures established by the NCI PDMR. All PDCs were thawed and cultured in Matrigel-coated flasks prepared with a working solution of 1X Ham's F-12 nutrient mix, without supplementation (Invitrogen, Waltham, MA, cat. 11765054), 100 U/mL penicillin-streptomycin (Invitrogen, cat. 15140122), and 2.5% Matrigel (Corning Inc., Corning, NY, cat. 354248) for the first three passages. The 362531-283-R-J2-PDC and 782815-120-R-J1-PDC lines were cultured in 6C/Colon 1B media, which includes advanced DMEM/F-12 (Thermo Fisher Scientific, cat. 12634028), 10 mM HEPES (Thermo Fisher Scientific, cat. 15630080), 1X GlutaMAX supplement (Thermo Fisher Scientific, cat. 35050061), 0.1 mg/mL primocin (InvivoGen, San Diego, CA, cat. ant-pm-2), 10% defined fetal bovine serum, heat inactivated (HyClone Laboratories Inc., Logan, UT, cat. SH30070.03HI), 50% L-WRN conditioned media (ATCC, cat. CRL-3276), 1.25 mM N-Acetyl-L-cysteine (Sigma-Aldrich, cat. A9165), 10 mM nicotinamide (Sigma-Aldrich, cat. N0636), 1X B-27 supplement (Thermo Fisher Scientific, cat. 17504044), 1X N-2 supplement (Thermo Fisher Scientific, cat. 17502048), 50 ng/mL human EGF (Thermo Fisher Scientific, cat. PHG0311), and 10 microM Y-27632 dihydrochloride (Tocris Bioscience, cat. 1254). The K12877-001-R-J1-PDC line was cultured in 6I media, which includes all 6C/Colon 1B media plus 10 ng/mL human FGF-10 (PeproTech, cat. 100-26), 1 ng/mL human FGF-2 (PeproTech, cat. 100-18B), 1 µM prostaglandin E2 (Tocris Bioscience, cat. 2296), […] hydrocortisone (Sigma-Aldrich, cat. H4001), and […] bovine insulin (Sigma-Aldrich, cat. I6634). The K86415-001-R-J1-PDC line was cultured in 6D media, which includes all 6C/Colon 1B media components minus the L-WRN conditioned media. The 485176-168-R4-J1-PDC was cultured in PANC media, which includes all 6C/Colon 1B media plus 100 ng/mL human FGF-10 (PeproTech, cat. 100-26), 500 nM SB-431542 (Selleckchem, cat. S1067), and 10 nM gastrin (Tocris Bioscience, cat. 3006). […]

[1] = second compound 0.0316 µM, first compound 0.0316 µM
[2] = second compound 0.0316 µM, first compound 0.1 µM
[3] = second compound 0.0316 µM, first compound 0.316 µM
[4] = second compound 0.0316 µM, first compound 1 µM
[5] = second compound 0.0316 µM, first compound 3.16 µM
[6] = second compound 0.0316 µM, first compound 10 µM
[7] = second compound 0.1 µM, first compound 0.0316 µM
[8] = second compound 0.1 µM, first compound 0.1 µM
[9] = second compound 0.1 µM, first compound 0.316 µM
[10] = second compound 0.1 µM, first compound 1 µM
[11] = second compound 0.1 µM, first compound 3.16 µM
[12] = second compound 0.1 µM, first compound 10 µM
[13] = second compound 0.316 µM, first compound 0.0316 µM
[14] = second compound 0.316 µM, first compound 0.1 µM
[15] = second compound 0.316 µM, first compound 0.316 µM
[16] = second compound 0.316 µM, first compound 1 µM
[17] = second compound 0.316 µM, first compound 3.16 µM
[18] = second compound 0.316 µM, first compound 10 µM
[19] = second compound 1 µM, first compound 0.0316 µM
[20] = second compound 1 µM, first compound 0.1 µM
[21] = second compound 1 µM, first compound 0.316 µM
[22] = second compound 1 µM, first compound 1 µM
[23] = second compound 1 µM, first compound 3.16 µM
[24] = second compound 1 µM, first compound 10 µM
[25] = second compound 3.16 µM, first compound 0.0316 µM
[26] = second compound 3.16 µM, first compound 0.1 µM
[27] = second compound 3.16 µM, first compound 0.316 µM
[28] = second compound 3.16 µM, first compound 1 µM
[29] = second compound 3.16 µM, first compound 3.16 µM
[30] = second compound 3.16 µM, first compound 10 µM
[31] = second compound 10 µM, first compound 0.0316 µM
[32] = second compound 10 µM, first compound 0.1 µM
[33] = second compound 10 µM, first compound 0.316 µM
[34] = second compound 10 µM, first compound 1 µM
[35] = second compound 10 µM, first compound 3.16 µM
[36] = second compound 10 µM, first compound 10 µM
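Also: spheroids exposed to agents for seven days before readout.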

## CC1(O)CCCC1n1c(=O)c(C(F)F)cc2cnc(NC3CCN(S(C)(=O)=O)CC3)nc21 (stereo unspecified) + C#Cc1c(F)ccc2cc(O)cc(-c3ncc4c(N5CC6CCC(C5)N6)nc(OCC56CCCN5CC(F)C6)nc4c3F)c12
Second compound 0.0316 µM
  IC50: 4.56 µM
Second compound 0.1 µM
  IC50: 4.58 µM
Second compound 0.316 µM
  IC50: 4.3 µM
Second compound 1 µM
  IC50: 4.02 µM
Second compound 3.16 µM
  IC50: < 0.0316 µM
Second compound 10 µM
  IC50: < 0.0316 µM
[1]
  viability, T/C: 86.2%
[2]
  viability, T/C: 71.4%
[3]
  viability, T/C: 59%
[4]
  viability, T/C: 79.4%
[5]
  viability, T/C: 70%
[6]
  viability, T/C: 7.15%
[7]
  viability, T/C: 78.2%
[8]
  viability, T/C: 68.4%
[9]
  viability, T/C: 57.9%
[10]
  viability, T/C: 64.6%
[11]
  viability, T/C: 80.6%
[12]
  viability, T/C: 8.13%
[13]
  viability, T/C: 74.2%
[14]
  viability, T/C: 63.3%
[15]
  viability, T/C: 55%
[16]
  viability, T/C: 67.9%
[17]
  viability, T/C: 67.1%
[18]
  viability, T/C: 8.09%
[19]
  viability, T/C: 65.3%
[20]
  viability, T/C: 62.4%
[21]
  viability, T/C: 53.6%
[22]
  viability, T/C: 54.5%
[23]
  viability, T/C: 70.7%
[24]
  viability, T/C: 6.85%
[25]
  viability, T/C: 28.2%
[26]
  viability, T/C: 28.9%
[27]
  viability, T/C: 29%
[28]
  viability, T/C: 43.6%
[29]
  viability, T/C: 59.4%
[30]
  viability, T/C: 5.28%
[31]
  viability, T/C: 15.6%
[32]
  viability, T/C: 16.1%
[33]
  viability, T/C: 21.9%
[34]
  viability, T/C: 25.9%
[35]
  viability, T/C: 30.2%
[36]
  viability, T/C: 2.97%

## CCN1CCN(Cc2ccc(Nc3ncc(F)c(-c4cc(F)c5nc(C)n(C(C)C)c5c4)n3)nc2)CC1 + C#Cc1c(F)ccc2cc(O)cc(-c3ncc4c(N5CC6CCC(C5)N6)nc(OCC56CCCN5CC(F)C6)nc4c3F)c12
Second compound 0.0316 µM
  IC50: > 1 µM
Second compound 0.1 µM
  IC50: > 1 µM
Second compound 0.316 µM
  IC50: > 1 µM
Second compound 1 µM
  IC50: 0.0271 µM
Second compound 3.16 µM
  IC50: < 0.00316 µM
Second compound 10 µM
  IC50: < 0.00316 µM
Second compound 0.0316 µM, first compound 0.00316 µM
  viability, T/C: 93.1%
Second compound 0.0316 µM, first compound 0.01 µM
  viability, T/C: 89%
[1]
  viability, T/C: 77.4%
[2]
  viability, T/C: 67.5%
[3]
  viability, T/C: 66.3%
[4]
  viability, T/C: 67.4%
Second compound 0.1 µM, first compound 0.00316 µM
  viability, T/C: 90.9%
Second compound 0.1 µM, first compound 0.01 µM
  viability, T/C: 80.5%
[7]
  viability, T/C: 72.3%
[8]
  viability, T/C: 61.7%
[9]
  viability, T/C: 57.4%
[10]
  viability, T/C: 70.7%
Second compound 0.316 µM, first compound 0.00316 µM
  viability, T/C: 92%
Second compound 0.316 µM, first compound 0.01 µM
  viability, T/C: 79.3%
[13]
  viability, T/C: 67.1%
[14]
  viability, T/C: 55.8%
[15]
  viability, T/C: 50.3%
[16]
  viability, T/C: 61%
Second compound 1 µM, first compound 0.00316 µM
  viability, T/C: 62%
Second compound 1 µM, first compound 0.01 µM
  viability, T/C: 54.7%
[19]
  viability, T/C: 49%
[20]
  viability, T/C: 44.5%
[21]
  viability, T/C: 45.2%
[22]
  viability, T/C: 53.5%
Second compound 3.16 µM, first compound 0.00316 µM
  viability, T/C: 39.5%
Second compound 3.16 µM, first compound 0.01 µM
  viability, T/C: 34.9%
[25]
  viability, T/C: 28.4%
[26]
  viability, T/C: 26.1%
[27]
  viability, T/C: 30.9%
[28]
  viability, T/C: 38.9%
Second compound 10 µM, first compound 0.00316 µM
  viability, T/C: 14.3%
Second compound 10 µM, first compound 0.01 µM
  viability, T/C: 15.6%
[31]
  viability, T/C: 14.1%
[32]
  viability, T/C: 19%
[33]
  viability, T/C: 22.1%
[34]
  viability, T/C: 22.2%

## C[C@@H](NC(=O)c1ncnc(N)c1Cl)c1ncc(C(=O)Nc2cc(C(F)(F)F)c(Cl)cn2)s1 + C#Cc1c(F)ccc2cc(O)cc(-c3ncc4c(N5CC6CCC(C5)N6)nc(OCC56CCCN5CC(F)C6)nc4c3F)c12
Second compound 0.0316 µM
  IC50: > 10 µM
Second compound 0.1 µM
  IC50: > 10 µM
Second compound 0.316 µM
  IC50: > 10 µM
Second compound 1 µM
  IC50: 7.33 µM
Second compound 3.16 µM
  IC50: 0.183 µM
Second compound 10 µM
  IC50: < 0.0316 µM
[1]
  viability, T/C: 107%
[2]
  viability, T/C: 115%
[3]
  viability, T/C: 104%
[4]
  viability, T/C: 81.1%
[5]
  viability, T/C: 61.1%
[6]
  viability, T/C: 56.5%
[7]
  viability, T/C: 113%
[8]
  viability, T/C: 112%
[9]
  viability, T/C: 93%
[10]
  viability, T/C: 79.9%
[11]
  viability, T/C: 67.5%
[12]
  viability, T/C: 56.8%
[13]
  viability, T/C: 119%
[14]
  viability, T/C: 108%
[15]
  viability, T/C: 88.8%
[16]
  viability, T/C: 79.8%
[17]
  viability, T/C: 65.5%
[18]
  viability, T/C: 53.6%
[19]
  viability, T/C: 83.9%
[20]
  viability, T/C: 85.9%
[21]
  viability, T/C: 69.1%
[22]
  viability, T/C: 69%
[23]
  viability, T/C: 59.7%
[24]
  viability, T/C: 46.3%
[25]
  viability, T/C: 46.9%
[26]
  viability, T/C: 53.5%
[27]
  viability, T/C: 52.3%
[28]
  viability, T/C: 42.6%
[29]
  viability, T/C: 38.4%
[30]
  viability, T/C: 30.2%
[31]
  viability, T/C: 19.5%
[32]
  viability, T/C: 26%
[33]
  viability, T/C: 23.1%
[34]
  viability, T/C: 18.2%
[35]
  viability, T/C: 19.6%
[36]
  viability, T/C: 15.3%
